Experimental data published in patent US6821980B1, “Substituted 5-benzyl-2,4-diaminopyrimidines” (Basilea Pharmaceutica AG, priority 1999, dated 2004).
≈ marks a conversion by molar mass, not a printed value. Where two headings read alike, the source gives them in different places.

Tests used:
[1] = system: Staphylococcus aureus 101; experiment: MIC against Staphylococcus aureus 101; type: cell-based; conditions: Staphylococcus aureus 101, MRSA- and trimethoprim-resistant, clinical isolate; for MIC: read-out: MIC Sa101
[2] = biological target: purified DHFR of strain 157/4696 of Staphylococcus aureus (Staphylococcus aureus, UniProt P13955); experiment: biochemical
[3] = system: Streptococcus pneumoniae 1/1; experiment: MIC against Streptococcus pneumoniae 1/1; type: cell-based; conditions: Streptococcus pneumoniae 1/1, trimethoprim- and penicillin-resistant, serotype 6, clinical isolate; for MIC: read-out: MIC Sp1/1
[4] = biological target: T1, purified DHFR of strain Sp1/1 of Streptococcus pneumoniae (Streptococcus pneumoniae serotype 4, UniProt Q54801); type: biochemical; conditions: IC50 against purified DHFR of strain Sp1/1
T1 sequence (Q54801 1-168 I100L): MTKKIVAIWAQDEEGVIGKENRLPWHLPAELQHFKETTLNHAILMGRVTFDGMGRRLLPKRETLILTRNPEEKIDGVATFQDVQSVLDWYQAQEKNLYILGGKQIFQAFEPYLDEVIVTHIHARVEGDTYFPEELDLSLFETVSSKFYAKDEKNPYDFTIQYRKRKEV

purified DHFR of strain 157/4696 of Staphylococcus aureus, sequence (P13955 whole entry): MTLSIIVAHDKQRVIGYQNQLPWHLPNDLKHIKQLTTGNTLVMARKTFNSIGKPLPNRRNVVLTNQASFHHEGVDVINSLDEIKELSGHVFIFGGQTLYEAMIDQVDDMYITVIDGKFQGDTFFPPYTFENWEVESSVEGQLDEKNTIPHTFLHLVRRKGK

| SMILES | MIC ([1]; Table 2) | IC50 [2] | MIC ([3]; Table 2) | IC50 ([4]; Table 2) | MIC Sa101 ([1]; Table 2) | IC50 ([2]; Table 2, IC50 against purified DHFR of strain 157/4696 (highly trimethoprim-resistant; clinical isolate), read-out: DHFR Sa1) | MIC Sp1/1 ([3]; Table 2) | MIC ([1]; Table 1) | MIC ([3]; Table 1) | IC50 ([4]; Table 1) |
| --- | --- | --- | --- | --- | --- | --- | --- | --- | --- | --- |
| CCOc1cc(Cc2cnc(N)nc2N)cc(OCC)c1-c1ccc(C)cc1 [Example 02-q, 5-(2,6-Diethoxy-4′-methyl-biphenyl-4-ylmethyl)-pyrimidine-2,4-diamine] | 4 µg/mL (≈ 10.6 µM) | 1100 nM | 8 µg/mL (≈ 21.1 µM) | 79 nM |  |  |  |  |  |  |
| CCOc1cc(Cc2cnc(N)nc2N)cc(OS(=O)(=O)C2CCC2)c1-c1ccc(N)c(F)c1 [Example 40-b, Cylobutane-sulphonic acid 4′-amino-4-(2,4-diamino-pyrimidin-5-ylmethyl)-6-ethoxy-3′-fluoro-4-ylmethyl-biphenyl-2-yl ester] |  |  |  | 27 nM | 2 µg/mL (≈ 4.1 µM) | 310 nM | 1 µg/mL (≈ 2.05 µM) |  |  |  |
| CCOc1cc(Cc2cnc(N)nc2N)cc(OS(=O)(=O)CC(C)C)c1-c1ccc(N)cc1 [Example 36-c, 2-Methyl-propane-1-sulphonic acid 4′-amino-4-(2,4-diamino-pyrimidin-5-ylmethyl)-6-ethoxy-biphenyl-2-yl ester] | 2 µg/mL (≈ 4.24 µM) | 240 nM | 0.5 µg/mL (≈ 1.06 µM) | 4.8 nM |  |  |  |  |  |  |
| CCOc1cc(Cc2cnc(N)nc2N)cc(OS(C)(=O)=O)c1-c1ccc(CN2CCOCC2)c(F)c1 [Example 64-a, Methanesulphonic acid 4-(2,4-diamino-pyrimidin-5-ylmethyl)-6-ethoxy-3′-fluoro-4′-morpholin-4-ylmethyl-biphenyl-2-yl ester] | 8 µg/mL (≈ 15 µM) | 1500 nM | 4 µg/mL (≈ 7.52 µM) | 52 nM |  |  |  |  |  |  |
| CCOc1cc(Cc2cnc(N)nc2N)cc(OCC)c1-c1ccc(CN(C)CCF)c(F)c1 [Example 04-ad, 5-(2,6-Diethoxy-3′-fluoro-4′-{[N-(2-fluoro-ethyl)-N-methyl-amino]-methyl}-biphenyl-4-ylmethyl)-pyrimidine-2,4-diamine] | 8 µg/mL (≈ 17 µM) | 2700 nM | 4 µg/mL (≈ 8.48 µM) | 170 nM |  |  |  |  |  |  |
| CCOc1cc(Cc2cnc(N)nc2N)cc(OCC)c1-c1cnc(CN2CCOCC2)nc1 [Example 04-x, 5-[3,5-Diethoxy-4-(2-morpholin-4-ylmethyl-pyrimidin-5-yl)-benzyl]-pyrimidine-2,4-diamine] | 8 µg/mL (≈ 17.2 µM) | 7900 nM | 8 µg/mL (≈ 17.2 µM) | 80 nM |  |  |  |  |  |  |
| CCOc1cc(Cc2cnc(N)nc2N)cc(OS(=O)(=O)C(C)CC)c1-c1cccc(N)c1 (centres unmarked) [Example 14g, Butane-2-sulphonic acid 3′-amino-4-(2,4-diamino-pvrimidin-5-ylmethyl)-6-ethoxy-biphenyl-2-yl ester] |  | 30 nM |  |  |  |  |  | 1 µg/mL (≈ 2.12 µM) | 1 µg/mL (≈ 2.12 µM) | 3.7 nM |
| CCOc1cc(Cc2cnc(N)nc2N)cc(OS(=O)(=O)CC(C)C)c1-c1ccc(N)c(C)c1 [Example 36-a, 2-Methyl-propane-1-sulphonic acid 4′-amino-4-(2,4-diamino-pyrimidin-5-ylmethyl)-6-ethoxy-3′-methyl-biphenyl-2-yl ester] | 2 µg/mL (≈ 4.12 µM) | 32 nM | 0.25 µg/mL (≈ 0.515 µM) | 3.3 nM |  |  |  |  |  |  |
| CCOc1cc(Cc2cnc(N)nc2N)cc(OCC)c1-c1ccc(CN2CCOCC2)c(F)c1 [Example 04-z] | 8 µg/mL (≈ 16.6 µM) | 3800 nM | 4 µg/mL (≈ 8.31 µM) | 58 nM |  |  |  |  |  |  |
| CCOc1cc(Cc2cnc(N)nc2N)cc(OCC)c1-c1ccc(CN2CCC(=O)N2)cc1 [Example 04-w, 1-[4′-(2,4-Diamino-pyrimidin-5-lmethyl)-2′,6′-diethoxy-biphenyl-4-ylmethyl]-pyrazolidin-3-one] | 8 µg/mL (≈ 17.3 µM) | 1200 nM | 8 µg/mL (≈ 17.3 µM) | 82 nM |  |  |  |  |  |  |
| CCOc1cc(Cc2cnc(N)nc2N)cc(OS(=O)(=O)N2CCOCC2)c1-c1cccc(N)c1 [Example 19-e, Morpholine-4-sulphonic acid 3′-amino-4-(2,4-diamino-pyrimidin-5-ylmethyl)-6-ethoxy-biphenyl-2-yl ester] | 2 µg/mL (≈ 4 µM) | 38 nM | 1 µg/mL (≈ 2 µM) | 3.9 nM |  |  |  |  |  |  |
| CCOc1cc(Cc2cnc(N)nc2N)cc(OCC2CCC2)c1-c1ccc(O)cc1 [Example 08-i, 2′-Cyclobutylmethoxy-4′-(2,4-diamino-pyrimidin-5-ylmethyl)-6′-ethoxy-biphenyl-4-ol] | 2 µg/mL (≈ 4.76 µM) | 1000 nM | 4 µg/mL (≈ 9.51 µM) | 40 nM |  |  |  |  |  |  |
| CCOc1cc(Cc2cnc(N)nc2N)cc(OS(=O)(=O)N(C)C)c1-c1ccc(CN2CCOCC2)cc1 [Example 65-, Dimethylsulphamic acid 4-(2,4-diamino-pyrimidin-5-ylmethyl)-6-ethoxy-4′-morpholin-4-ylmethyl-biphenyl-2-yl ester] | 2 µg/mL (≈ 3.69 µM) | 160 nM | 2 µg/mL (≈ 3.69 µM) | 24 nM |  |  |  |  |  |  |
| CCOc1cc(Cc2cnc(N)nc2N)cc(OS(=O)(=O)c2ccc(OC)c(F)c2)c1-c1cccc(N)c1 [Example 14-e, 3-Fluoro-4-methoxy-benzenesulphonic acid 3′-amino-4-(2,4-diamino-pyrimidin-5-ylmethyl)-6-ethoxy-biphenyl-2-yl ester] | 8 µg/mL (≈ 14.8 µM) | 410 nM | 1 µg/mL (≈ 1.85 µM) | 12 nM |  |  |  |  |  |  |
| CCOc1cc(Cc2cnc(N)nc2N)cc(OS(=O)(=O)C2CC2)c1-c1ccc(CN2CCOCC2)s1 [Example 24-, Cyclopropanesulphonic acid 5-(2,4-diamino-pyrimidin-5-ylmethyl)-3-ethoxy-2-(5-morpholin-4-ylmethyl-thiophen-2-yl)-phenyl ester] | 4 µg/mL (≈ 7.33 µM) | 190 nM | 1 µg/mL (≈ 1.83 µM) | 16 nM |  |  |  |  |  |  |
| CCOc1cc(Cc2cnc(N)nc2N)cc(OCC)c1-c1ccc(CN2CCOCC2)cc1 [Example 02-w, 5-(2,6-Diethoxy-4′-morpholine-4-ylmethyl-biphenyl-4-ylmethyl)-pyrimidine-2,4-diamine] | 8 µg/mL (≈ 17.3 µM) | 2200 nM | 4 µg/mL (≈ 8.63 µM) | 280 nM |  |  |  |  |  |  |
| CCOc1cc(Cc2cnc(N)nc2N)cc(OS(=O)(=O)C(C)C)c1-c1ccc(O)cc1 [Example 15-c, Propane-2-sulphonic acid 4-(2,4-diamino-pyrimidin-5-ylmethyl)-6-ethoxy-4′-hydroxy-biphenyl-2-yl ester] | 1 µg/mL (≈ 2.18 µM) | 64 nM | 1 µg/mL (≈ 2.18 µM) | 12 nM |  |  |  |  |  |  |
| CCOc1cc(Cc2cnc(N)nc2N)cc(OCC2CC2)c1-c1cccc(O)c1 [Example 54-, 2′-Cyclopropanomethoxy-4′-(2,4-diamino-pyrimidin-5-ylmethyl)-6′-ethoxy-biphenyl-3-ol] | 8 µg/mL (≈ 19.7 µM) | 3100 nM | 2 µg/mL (≈ 4.92 µM) | 19 nM |  |  |  |  |  |  |
| CCCS(=O)(=O)Oc1cc(Cc2cnc(N)nc2N)cc(OCC)c1-c1cccc(N)c1 [Example 14-d] | 2 µg/mL (≈ 4.37 µM) | 82 nM | 1 µg/mL (≈ 2.19 µM) | 16 nM |  |  |  |  |  |  |
| CCOc1cc(Cc2cnc(N)nc2N)cc(OCCc2scnc2C)c1-c1ccc(O)cc1 [Example 08-q, 4′-(2,4-Diamino-pyrimidin-5-ylmethyl)-6′-ethoxy-2′-[2-(4-methyl-thiazol-5-yl)-ethoxy]-biphenyl-4-ol] | 8 µg/mL (≈ 16.8 µM) | 1400 nM | 8 µg/mL (≈ 16.8 µM) | 28 nM |  |  |  |  |  |  |
| CCOc1cc(Cc2cnc(N)nc2N)cc(OS(=O)(=O)N(C)C)c1-c1ccc(CN2CCOCC2)c(F)c1 [Example 64-b, Dimethylsulphamic acid 4-(2,4-diamino-pyrimidin-5-ylmethUl)-6-ethoxy-3′-fluoro-4′-morpholin-4-ylmethyl-biphenyl-2-yl ester] | 2 µg/mL (≈ 3.57 µM) | 300 nM | 2 µg/mL (≈ 3.57 µM) | 27 nM |  |  |  |  |  |  |
| CCOc1cc(Cc2cnc(N)nc2N)cc(OCC)c1-c1ccc(CNCC(F)(F)F)cc1 [Example 04-v, 5-[2,6-Diethoxy-4′-[(2,2,2-trifluoroethylamino)-methyl]-biphenyl-4-ylmethyl]-pyrimidine-2,4-diamine] | 8 µg/mL (≈ 16.8 µM) | 1300 nM | 4 µg/mL (≈ 8.41 µM) | 150 nM |  |  |  |  |  |  |
| CCOc1cc(Cc2cnc(N)nc2N)cc(OCC)c1-c1cccs1 [Example 02-m, 5-(3,5-Diethoxy-4-thiophen-2-yl-benzyl)-pyrimidine-2,4-diamine] | 8 µg/mL (≈ 21.6 µM) | 700 nM | 4 µg/mL (≈ 10.8 µM) | 58 nM |  |  |  |  |  |  |
| CCOc1cc(Cc2cnc(N)nc2N)cc(OS(=O)(=O)C(C)CC)c1-c1ccc(CN2CCOCC2)c(N)c1 (centres unmarked) [Example 35-c, Butane-2-sulphonic acid 3′-amino-4-(2,4-diamino-pyrimidin-5-ylmethyl)-6-ethoxy-4′-morpholin-4-ylmethyl-biphenyl-2-yl ester] | 2 µg/mL (≈ 3.5 µM) | 43 nM | 1 µg/mL (≈ 1.75 µM) | 4.6 nM |  |  |  |  |  |  |
| CCOc1cc(Cc2cnc(N)nc2N)cc(OS(=O)(=O)N(C)C)c1-c1ccc(NC)cc1 [Example 26-a, Dimethylsulphamic acid 4-(2,4-diamino-pyrimidin-5-ylmethyl)-6-ethoxy-4′-methylamino-biphenyl-2-yl ester] | 1 µg/mL (≈ 2.12 µM) | 130 nM | 1 µg/mL (≈ 2.12 µM) | 2.1 nM |  |  |  |  |  |  |
| CCOc1cc(Cc2cnc(N)nc2N)cc(OS(=O)(=O)C2CCC2)c1-c1ccc(CN2CCOCC2)c(N)c1 [Example 40-d, Cyclobutane-sulphonic acid 3′-amino-4-(2,4-diamino-pyrimidin-5-ylmethyl)-6-ethoxy-4′-morpholinomethyl-biphenyl-2-yl ester] | 2 µg/mL (≈ 3.52 µM) | 130 nM | 2 µg/mL (≈ 3.52 µM) | 17 nM |  |  |  |  |  |  |
